Measurements reported in publication PMC11847841, “The development and evaluation of a tublysine-based antibody-drug conjugate with enhanced tumor therapeutic efficacy” (Frontiers in Pharmacology, 2025).
Read-outs that look alike come from different tables or passages of the source.

Tests used:
[1] = cited from earlier work; for Cmax of free payload: ref Poon et al., 2013
[2] = exceeds total body water content in rats; ref Pharmaceuticals and Medical Devices Agency, 2013; cited from earlier work
[3] = test system: HER2-positive BT-474 cells; assay: In vitro endocytosis into BT-474 cells; format: cell-based, human
Description: (§1) BT-474 and SK-BR-3 cells were cultured to the exponential growth phase, harvested, and washed with pre-cooled PBS. […] Alexa Fluor 488-conjugated goat anti-human IgG (H + L) secondary antibody (10 μg/mL; Invitrogen, Shanghai, China) was subsequently added, and the cells were incubated on ice for 30 min. After additional washes, the cells were resuspended in pre-cooled PBS, divided into five aliquots, and incubated at 37°C for 0, 10, 30, 90, or 120 min. At each time point, cells were further split into two sub-aliquots: one treated with Trypan Blue to quench extracellular fluorescence and the other with PBS as an unquenched control. Fluorescence intensity was measured using a flow cytometer (Guava, Merck Millipore). The percentage of endocytosis was calculated as the ratio of quenched to unquenched fluorescence multiplied by 100%.

[4] = test system: HER2-positive SK-BR-3 cells; assay: In vitro endocytosis into SK-BR-3 cells; format: cell-based, human
Description: as §1

[5] = test system: HER2-negative cell line MDA-MB-468; assay: In vitro inhibition of proliferation of HER2-negative cells (EZMTT); format: cell-based, human; conditions: at high concentrations
[6] = test system: BT-474 human breast cancer xenografts; assay: BT-474 xenograft efficacy study; format: in vivo, BALB/c nude mice; conditions: BT-474 model, administered alone
[7] = test system: tumor cells; assay: In vitro cytotoxicity of Tub114 and Tub114-cys; format: cell-based; conditions: at the same concentration as the corresponding ADC; Supplementary Figure S2
Description: EC50 values were calculated using the built-in software.

[8] = Single-dose pharmacokinetic study in cynomolgus monkey
[9] = Tub114-cys alone 1 mg/kg single administration
[10] = free Tub114-cys in plasma after DX126-262 3 mg/kg single i.v.
[11] = free Tub114-cys in plasma after DX126-262 10 mg/kg single i.v.
[12] = free Tub114-cys in plasma after DX126-262 30 mg/kg single i.v.

COc1cc2cc(c1Cl)N(C)C(=O)C[C@H](OC(=O)[C@H](C)N(C)C(=O)CCS)[C@]1(C)O[C@H]1[C@H](C)[C@@H]1C[C@@](O)(NC(=O)O1)[C@H](OC)/C=C/C=C(\C)C2 [DM1]
Cmax of free payload ([1]; DM1 after 3 mg/kg Kadcyla): 8.0 nM
Cmax of free payload ([1]; DM1 after 10 mg/kg Kadcyla): 28.2 nM
Cmax of free payload ([1]; DM1 after 30 mg/kg Kadcyla): 90.2 nM
Vss [2]: > 0.668 L/kg

CC[C@@]1(O)C(=O)OCc2c1cc1n(c2=O)Cc2c-1nc1cc(F)c(C)c3c1c2[C@@H](NC(=O)CO)CC3 [Dxd]
Vss ([1]; Dxd 1 mg/kg, ref Nagai et al., 2019): 0.832 L/kg

ado-trastuzumab emtansine [Kadcyla]
Endocytosis Efficiency ([3]; BT-474, incubation time 0 min): 10.8%
Endocytosis Efficiency ([3]; BT-474, incubation time 10 min): 27.3%
Endocytosis Efficiency ([3]; BT-474, incubation time 30 min): 34.2%
Endocytosis Efficiency ([3]; BT-474, incubation time 90 min): 38.6%
Endocytosis Efficiency ([3]; BT-474, incubation time 120 min): 43.8%
Endocytosis Efficiency ([4]; SK-BR-3, incubation time 0 min): 9.3%
Endocytosis Efficiency ([4]; SK-BR-3, incubation time 10 min): 11.8%
Endocytosis Efficiency ([4]; SK-BR-3, incubation time 30 min): 17.4%
Endocytosis Efficiency ([4]; SK-BR-3, incubation time 90 min): 31.6%
Endocytosis Efficiency ([4]; SK-BR-3, incubation time 120 min): 33.4%
Toxicity to HER2-negative cell line MDA-MB-468 [5]: some inhibitory effects

CCC(C)C(NC(=O)C(C)(C)N(C)C)C(=O)N(C)C(CC(OC(C)=O)c1nc(C(=O)NC(Cc2ccc(O)c(NC(=O)CCCNC(=O)C(CCCCNC(=O)COCCOCCOCCOCCOCCOCCOCCOCCOCCOC)NC(=O)CCCN3C(=O)CC(SCC(N)C(=O)O)C3=O)c2)CC(C)C(=O)O)cs1)C(C)C (centres unmarked) [Tub114-cys]
Antitumor effect [6]: no antitumor effect
Killing of tumor cells by free payload [7]: neither Tub114 nor Tub114-cys could kill tumor cells at the same concentration as the corresponding ADC
Cmax of free payload ([8]; Tub114-cys after 3 mg/kg DX126-262): 5.5 nM
Cmax of free payload ([8]; Tub114-cys after 10 mg/kg DX126-262): 14.6 nM
Cmax of free payload ([8]; Tub114-cys after 30 mg/kg DX126-262): 31.7 nM
AUCinf [8, 9]: 4,501.5 ± 657.9 ng•hr/mL
CL [8, 9]: 3.772 ± 0.578 mL/min/kg
Cmax [8, 9]: 4,155.8 ± 464.2 ng/mL
T1/2 [8, 9]: 1.2 ± 0.2 h
Vss [8, 9]: 0.2538 ± 0.0307 L/kg
AUC inf [8, 10]: 519.2 ± 381.9 ng·h/mL
Cmax [8, 10]: 9.5 ± 1.1 ng/mL
T1/2 [8, 10]: 51.4 ± 47.1 h
AUC inf [8, 11]: 966.4 ± 115.4 ng·h/mL
Cmax [8, 11]: 25.0 ± 5.2 ng/mL
T1/2 [8, 11]: 26.6 ± 6.6 h
AUC inf [8, 12]: 2,505.7 ± 419.6 ng•hr/mL
Cmax [8, 12]: 54.3 ± 5.7 ng/mL
T1/2 [8, 12]: 28.1 ± 2.7 h
